Results as given in patent publication US12168085B2, “Surgical system and methods of use” (priority 2021, dated 2024).

Key:
[1] = time to reach plasma concentrations; assay type: in vivo; conditions: when given preoperatively
myofibroblast formation = conditions: Ajmal et al. (2003); cited from earlier work

SMILES | time to reach plasma concentrations [1] [min] | effect on myofibroblast formation (myofibroblast formation)
NC[C@H]1CC[C@H](C(=O)O)CC1 [tranexamic acid, trans-4-(aminomethyl)cyclohexanecarboxylic acid] | 5 to 15 | –
O=S(=O)([O-])CCS.[Na+] [MESNA, sodium 2-mercaptoethane sulfonate] | – | diminish myofibroblast formation
